Laboratory results published in article PMC10246721, “Cryo-EM structures for the Mycobacterium tuberculosis iron-loaded siderophore transporter IrtAB” (Protein & Cell, 2022).

Experiments:
[1] = biological target: T1, IrtABΔSID (SID-truncated IrtAB) (Mycobacterium tuberculosis, UniProt P9WQJ7+P9WQJ9)
T1 construct: gene irtA

[2] = biological target: T1, IrtABΔSID (SID-truncated IrtAB); remark: listed apart in the source

Compound | cryo-EM structure [1] | ATPase activity, phosphate release (MAK-113) [2]
Nc1ncnc2c1ncn2[C@@H]1O[C@H](COP(=O)(O)OP(=O)(O)O)[C@@H](O)[C@H]1O [ADP] | we also solved the structure of IrtABΔSID in complex with ADP | –
Nc1ncnc2c1ncn2[C@@H]1O[C@H](COP(=O)(O)OP(=O)(O)OP(=O)(O)O)[C@@H](O)[C@H]1O [ATP] | – | ATPase activity of IrtABΔSID is comparable to that of the wild-type (WT) protein
